Two compounds from patent publication EP0289604A1, “2-METHYLMERCAPTO-3-CYANO-4-(O-DIFLUOROMETHOXYPHENYL)-6-PHENYL-1,4-DIHYDROPYRIDINE” (INSTITUT ORGANICHESKOGO SINTEZA AKADEMII NAUK LATVIISKOI SSR, priority 1986, dated 1988) can be followed below.

The term LD50 denotes the dose expected to kill half of the subjects tested. Low values mean a more toxic substance, high ones a less toxic substance.

Molecules are shown by their SMILES.

Data set [1] deals with spontan hypertensiven Ratten (SHR). In words: Hypotensive effect in spontaneously hypertensive rats, single intragastric administration. The class given is in vivo. The note with it: for Der hypotensive Effekt, % an SHR nach 48 Stunden: after 48 hours; for Dauer der hypotensiven Wirkung: single intragastric dose 10 mg/kg (similar dose for comparators), time over which the effect is detected or after which it ends.

The test system of data set [2] is spontan hypertensiven Ratten. In words: Hypotensive effect in spontaneously hypertensive rats, repeated intragastric administration for 10 days. Conditions: SHR. The data set is classed as in vivo.
A short description of data set [3]: in vivo. Conditions: mouse, ip, white outbred mice, intraperitoneal administration.
Data set [4] in a line: Solubility and stability of the substance. The data set is classed as physicochemical. As to the method: Die genannte Verbindung stellt eine kristalline Substanz vom 128 bis I30°C Schm.p. dar. […] Diese Verbindung ist sowohl in kristallinem Zustand als auch in Porm von Lösungen in organischen Lösungsmitteln stabil.
[5] abbreviates: dose 10 mg/kg, single intragastric administration, after 6 hours.
Setting [6] is: dose 10 mg/kg, single intragastric administration.

Consider `COC(=O)C1=C(C)NC(C)=C(C(=O)OC)C1c1ccccc1[N+](=O)[O-]` [Nifedipine, 2,6-Dimethyl-3,5-dimethoxykarbonyl-4-(o-nithophenyl)-I,4-di-hydropyridin, reference compound], for which the “Der hypotensive Effekt, % an SHR nach I Stunden” value in data set [1] (dose 10 mg/kg, single intragastric administration, after 1 hour) stood at 34%. Also, the “Der hypotensive Effekt, % an SHR nach 6 Stunden” value in data set [1] (setting [5]) was 23%. Moreover, the “Der hypotensive Effekt, % an SHR nach 24 Stunden” value in data set [1] (dose 10 mg/kg, single intragastric administration, after 24 hours) amounted to 0%. Further, the “Der hypotensive Effekt, % an SHR nach 48 Stunden” value in data set [1] (setting [6]) was determined as 0%. In data set [1], the “Dauer der hypotensiven Wirkung” value was 6 Stunden.

On to `CSC1=C(C#N)C(c2ccccc2OC(F)F)C=C(c2ccccc2)N1` (stereo not shown) [Die erfindungsgemässe Verbindung, 2-Methylmerkapto-3-zyano-4-(o-difluormethoxyphenyl)-6-phenyl-I,4-dihydropyridin], for which, in data set [2] (10 mg/kg intragastric once daily for 10 days), the “systolische Blutdruck herabgesetzt zum 10. Einführungstag” value came to 26%. The “arterielle Blutdruck erreichte das Ausgangsniveau nach dem Aufhören der Einführung” value in data set [2] (after stopping 10 mg/kg intragastric once daily for 10 days) is recorded as at most 3 Tagen. The same compound had an LD50 in data set [3] above 5000 mg/kg. Also, in data set [1] (setting [5]), the “Der hypotensive Effekt, % an SHR nach 6 Stunden” value amounted to 24%. Further, the “Der hypotensive Effekt, % an SHR nach 48 Stunden” value in data set [1] (setting [6]) is reported as 6%. In addition, the “Dauer der hypotensiven Wirkung” value in data set [1] was at most 48 Stunden. Besides, the “systolische Blutdruck herabgesetzt” value in data set [1] (single intragastric dose 10 mg/kg, after 6 hours) is recorded as 21%. In addition, the “Effekt der Senkung des systolischen arteriellen Blutdrucks, Zeit nach der Einführung” value in data set [1] (single intragastric dose 10 mg/kg, onset of effect) is 30 Minuten. For the same compound, in data set [4] (in crystalline state and as solutions in organic solvents), the Stabilität result is on record as “stabil”. In data set [4] (organic solvents), the “Löslichkeit in Methyl-, Äthylalkohol, Azeton, Chloroform” value was “gut löslich”. The “Löslichkeit in Wasser” value in data set [4] (water) was “praktisch unlöslich”.
